Measurements taken from patent publication US10941138B2, “Quinoline and isoquinoline derivatives for treating pain and pain related conditions” (ESTEVE PHARMACEUTICALS, S.A., priority 2016, dated 2021).

target: human α2δ-1 subunit of Cav2.2 calcium channel (Homo sapiens (Human), UniProt P54289); assay: Binding assay to human α2δ-1 subunit of Cav2.2 calcium channel ([3H]-Gabapentin); details: Table 1, human α2δ-1 enriched membranes, read-out: Ki (nM) alpha2delta Hum
Description: Binding Assay to Human α2δ-1 Subunit of Cav2.2 Calcium Channel.
Human α2δ-1 enriched membranes (2.5 μg) were incubated with 15 nM of radiolabeled [3H]-Gabapentin in assay buffer containing Hepes-KOH 10 mM, pH 7.4.
NSB (non specific binding) was measured by adding 10 μM pregabalin. The binding of the test compound was measured at five different concentrations. After 60 min incubation at 27° C., binding reaction was terminated by filtering through Multiscreen GF/C (Millipore) presoaked in 0.5% polyethyleneimine in Vacuum Manifold Station, followed by 3 washes with ice-cold filtration buffer containing 50 mM Tris-HCl, pH 7.4. Filter plates were dried at 60° C. for 1 h and 30 μl of scintillation cocktail were added to each well before radioactivity reading.
Readings were performed in a Trilux 1450 Microbeta radioactive counter (Perkin Elmer).

Sequence of human α2δ-1 subunit of Cav2.2 calcium channel (P54289 25-1103): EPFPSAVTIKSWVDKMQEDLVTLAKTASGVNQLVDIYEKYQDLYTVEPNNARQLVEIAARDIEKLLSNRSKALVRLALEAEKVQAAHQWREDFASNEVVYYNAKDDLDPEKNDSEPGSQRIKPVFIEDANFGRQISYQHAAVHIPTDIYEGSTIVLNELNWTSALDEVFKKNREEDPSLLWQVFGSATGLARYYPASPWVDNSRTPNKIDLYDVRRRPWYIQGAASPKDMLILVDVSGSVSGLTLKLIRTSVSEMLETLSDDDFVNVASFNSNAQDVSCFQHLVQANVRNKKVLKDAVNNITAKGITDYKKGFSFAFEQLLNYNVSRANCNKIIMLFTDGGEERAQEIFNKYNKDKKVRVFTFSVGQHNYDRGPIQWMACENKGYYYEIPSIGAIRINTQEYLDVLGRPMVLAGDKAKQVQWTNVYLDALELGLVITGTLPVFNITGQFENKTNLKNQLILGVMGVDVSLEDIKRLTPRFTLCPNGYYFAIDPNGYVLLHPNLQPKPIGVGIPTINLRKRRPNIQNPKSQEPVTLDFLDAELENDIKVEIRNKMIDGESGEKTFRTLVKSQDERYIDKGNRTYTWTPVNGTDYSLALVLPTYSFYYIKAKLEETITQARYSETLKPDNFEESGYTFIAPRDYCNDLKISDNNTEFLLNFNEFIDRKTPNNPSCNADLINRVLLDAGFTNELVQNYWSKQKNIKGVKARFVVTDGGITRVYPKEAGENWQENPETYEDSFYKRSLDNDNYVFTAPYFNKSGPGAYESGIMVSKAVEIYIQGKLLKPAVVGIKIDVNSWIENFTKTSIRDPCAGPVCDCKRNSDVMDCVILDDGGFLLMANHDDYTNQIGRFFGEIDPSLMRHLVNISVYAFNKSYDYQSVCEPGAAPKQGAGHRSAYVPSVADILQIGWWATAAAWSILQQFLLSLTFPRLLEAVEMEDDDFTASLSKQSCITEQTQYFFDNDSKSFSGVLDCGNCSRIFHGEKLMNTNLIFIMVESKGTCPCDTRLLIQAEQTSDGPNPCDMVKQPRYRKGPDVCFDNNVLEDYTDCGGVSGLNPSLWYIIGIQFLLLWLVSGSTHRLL

Ki [nM] | SMILES
≥ 3000 | CNCCC(Oc1ccnc2ccccc12)c1cccs1 (stereo not shown) [Example 4, N-methyl-3-(quinolin-4-yloxy)-3-(thiophen-2-yl)propan-1-amine]
< 100 | CCNCCC(Oc1cccc2cnccc12)c1cccs1 (stereo not shown) [Example 5, N-ethyl-3-(isoquinolin-5-yloxy)-3-(thiophen-2-yl)propan-1-amine]
≥ 3000 | c1ccc(CNCCC(Oc2cccc3cnccc23)c2cccs2)cc1 (stereo not shown) [Example 6, N-benzyl-3-(isoquinolin-5-yloxy)-3-(thiophen-2-yl)propan-1-amine]
≥ 3000 | CNCC[C@@H](Oc1ccc2ncccc2c1)c1cccs1 [Example 7, (R)—N-Methyl-3-(quinolin-6-yloxy)-3-(thiophen-2-yl)propan-1-amine]
≥ 3000 | CN(C)CCC(Oc1nccc2ccccc12)c1cccs1 (stereo not shown) [Example 8, 3-(isoquinolin-1-yloxy)-N,N-dimethyl-3-(thiophen-2-yl)propan-1-amine]
< 100 | CNCCC(Oc1cccc2c(C(N)=O)nccc12)c1cccs1 (stereo not shown) [Example 16, 5-(3-(methylamino)-1-(thiophen-2-yl)propoxy)isoquinoline-1-carboxamide]
≥ 3000 | CNCCC(Oc1cccc2ccncc12)C1CCOCC1 (stereo not shown) [Example 19, 3-(isoquinolin-8-yloxy)-N-methyl-3-(tetrahydro-2H-pyran-4-yl)propan-1-amine]
≥ 3000 | CNCCC(Oc1cccc2ncccc12)C1CCOCC1 (stereo not shown) [Example 20, N-methyl-3-(quinolin-5-yloxy)-3-(tetrahydro-2H-pyran-4-yl)propan-1-amine]
≥ 3000 | CNCCC(Oc1cccc2ccncc12)c1cccnc1 (stereo not shown) [Example 21, 3-(isoquinolin-8-yloxy)-N-methyl-3-(pyridin-3-yl)propan-1-amine]
≥ 3000 | CNCCC(Oc1cccc2ccncc12)c1ccccn1 (stereo not shown) [Example 22, 3-(isoquinolin-8-yloxy)-N-methyl-3-(pyridin-2-yl)propan-1-amine]
≥ 3000 | CNCCC(Oc1cccc2cnccc12)c1ccccn1 (stereo not shown) [Example 23, 3-(isoquinolin-5-yloxy)-N-methyl-3-(pyridin-2-yl)propan-1-amine]
≥ 3000 | CNCCC(Oc1cccc2ccncc12)c1cccc(C(F)(F)F)n1 (stereo not shown) [Example 24, 3-(isoquinolin-8-yloxy)-N-methyl-3-(6-(trifluoromethyl)pyridin-2-yl)propan-1-amine]
≥ 3000 | CNCCC(Oc1cccc2cnccc12)c1cncc(Cl)c1 (stereo not shown) [Example 26, 3-(5-chloropyridin-3-yl)-3-(isoquinolin-5-yloxy)-N-methylpropan-1-amine]
≥ 3000 | CNCCC(Oc1cccc2ccncc12)c1ccncc1 (stereo not shown) [Example 27, 3-(isoquinolin-8-yloxy)-N-methyl-3-(pyridin-4-yl)propan-1-amine]
≥ 3000 | CNCCC(Oc1cccc2cnccc12)c1ccc(C(F)(F)F)nc1 (stereo not shown) [Example 28, 3-(isoquinolin-5-yloxy)-N-methyl-3-(6-(trifluoromethyl)pyridin-3-yl)propan-1-amine]
≥ 3000 | CNCCC(Oc1cccc2cnccc12)c1cc(C(F)(F)F)ccn1 (stereo not shown) [Example 29, 3-(isoquinolin-5-yloxy)-N-methyl-3-(4-(trifluoromethyl)pyridin-2-yl)propan-1-amine]
≥ 3000 | CNCCC(Oc1cccc2ncccc12)c1cc(C(F)(F)F)ccn1 (stereo not shown) [Example 31, N-methyl-3-(quinolin-5-yloxy)-3-(4-(trifluoromethyl)pyridin-2-yl)propan-1-amine]
100 to 500 | CNCCC(Oc1cccc2ncccc12)c1nc(C)cs1 (stereo not shown) [Example 32, N-methyl-3-(4-methylthiazol-2-yl)-3-(quinolin-5-yloxy)propan-1-amine]
≥ 3000 | CNCCC(Oc1cccc2ncccc12)c1ccccn1 (stereo not shown) [Example 33, N-methyl-3-(pyridin-2-yl)-3-(quinolin-5-yloxy)propan-1-amine]
500 to 3000 | CNCCC(Oc1cccc2ncccc12)c1ncc(C)s1 (stereo not shown) [Example 34, N-methyl-3-(5-methylthiazol-2-yl)-3-(quinolin-5-yloxy)propan-1-amine]
≥ 3000 | CNCCC(Oc1cccc2ncccc12)c1ccncc1 (stereo not shown) [Example 35, N-methyl-3-(pyridin-4-yl)-3-(quinolin-5-yloxy)propan-1-amine]
≥ 3000 | CNCCC(Oc1cccc2ncccc12)c1cccnc1 (stereo not shown) [Example 36, N-methyl-3-(pyridin-3-yl)-3-(quinolin-5-yloxy)propan-1-amine]
≥ 3000 | CNCCC(Oc1cccc2cnccc12)c1cccc(C(F)(F)F)n1 (stereo not shown) [Example 37, 3-(isoquinolin-5-yloxy)-N-methyl-3-(6-(trifluoromethyl)pyridin-2-yl)propan-1-amine]

Ki [nM] | SMILES
≥ 3000 | CNCCC(Oc1cccc2ncccc12)c1cccc(C(F)(F)F)n1 (stereo not shown) [Example 38, N-methyl-3-(quinolin-5-yloxy)-3-(6-(trifluoromethyl)pyridin-2-yl)propan-1-amine]
≥ 3000 | CNCCC(Oc1cccc2ccncc12)c1ccc(C(F)(F)F)nc1 (stereo not shown) [Example 39, 3-(isoquinolin-8-yloxy)-N-methyl-3-(6-(trifluoromethyl)pyridin-3-yl)propan-1-amine]
≥ 3000 | CNCCC(Oc1cccc2ncccc12)c1ccc(C(F)(F)F)nc1 (stereo not shown) [Example 40, N-methyl-3-(quinolin-5-yloxy)-3-(6-(trifluoromethyl)pyridin-3-yl)propan-1-amine]
500 to 3000 | CN(C)CCC(Oc1cccc2cnccc12)c1cccs1 (stereo not shown) [Example 43, 3-(isoquinolin-5-yloxy)-N,N-dimethyl-3-(thiophen-2-yl)propan-1-amine]
500 to 3000 | CNCC[C@H](Oc1ccc2cnccc2c1)c1cccs1 [Example 55, (S)-3-(isoquinolin-6-yloxy)-N-methyl-3-(thiophen-2-yl)propan-1-amine]
100 to 500 | CNCCC(Oc1cccc2ncccc12)c1ccsc1 (stereo not shown) [Example 57, N-methyl-3-(quinolin-5-yloxy)-3-(thiophen-3-yl)propan-1-amine]
< 100 | CNCC[C@@H](Oc1cccc2c(C)nccc12)c1cccs1 [Example 59, (R)-N-methyl-3-((1-methylisoquinolin-5-yl)oxy)-3-(thiophen-2-yl)propan-1-amine]
100 to 500 | CNCC[C@@H](Oc1cccc2ncccc12)c1ccsc1 [Example 63, (R)-N-methyl-3-(quinolin-5-yloxy)-3-(thiophen-3-yl)propan-1-amine]
≥ 3000 | CNCC[C@H](Oc1cccc2ccnc(C)c12)c1cccs1 [Example 64, (S)-N-methyl-3-((1-methylisoquinolin-8-yl)oxy)-3-(thiophen-2-yl)propan-1-amine]
< 100 | CNCC[C@@H](Oc1cccc2nc(C)cc(C)c12)c1cccs1 [Example 66, (R)-3-((2,4-dimethylquinolin-5-yl)oxy)-N-methyl-3-(thiophen-2-yl)propan-1-amine]
≥ 3000 | CNCCC(Oc1cccc2ccncc12)c1nccs1 (stereo not shown) [Example 70, 3-(Isoquinolin-8-yloxy)-N-methyl-3-(thiazol-2-yl)propan-1-amine]
500 to 3000 | CNCCC(Oc1ccc2cccnc2c1)c1cccs1 (stereo not shown) [Example 73, N-methyl-3-(quinolin-7-yloxy)-3-(thiophen-2-yl)propan-1-amine]
100 to 500 | CNCCC(Oc1cccc2c(C#N)nccc12)c1cccs1 (stereo not shown) [Example 75, 5-(3-(Methylamino)-1-(thiophen-2-yl)propoxy)isoquinoline-1-carbonitrile]
100 to 500 | CNCC[C@H](Oc1cccc2ncccc12)c1nccs1 [Example 76, (S)—N-Methyl-3-(quinolin-5-yloxy)-3-(thiazol-2-yl)propan-1-amine]
500 to 3000 | CNCC[C@@H](Oc1cccc2ncccc12)c1nccs1 [Example 77, (R)—N-methyl-3-(quinolin-5-yloxy)-3-(thiazol-2-yl)propan-1-amine]
500 to 3000 | CNCC[C@H](Oc1cccc2ccncc12)c1ccc(F)s1 [Example 80, (S)-3-(5-Fluorothiophen-2-yl)-3-(isoquinolin-8-yloxy)-N-methylpropan-1-amine]
100 to 500 | CCNCC[C@@H](Oc1cccc2cnccc12)c1cccs1 [Example 88, (R)-N-ethyl-3-(isoquinolin-5-yloxy)-3-(thiophen-2-yl)propan-1-amine]
< 100 | CCNCC[C@@H](Oc1cccc2c(C#N)nccc12)c1cccs1 [Example 89, (R)-5-(3-(ethylamino)-1-(thiophen-2-yl)propoxy)isoquinoline-1-carbonitrile]
100 to 500 | CCNCC[C@H](Oc1cccc2ncccc12)c1cccs1 [Example 90, (S)-N-ethyl-3-(quinolin-5-yloxy)-3-(thiophen-2-yl)propan-1-amine]
100 to 500 | CCNCC[C@H](Oc1cccc2c(C#N)nccc12)c1cccs1 [Example 91, (S)-5-(3-(ethylamino)-1-(thiophen-2-yl)propoxy)isoquinoline-1-carbonitrile]
≥ 3000 | CCNCC[C@H](Oc1cccc2cnccc12)c1cccs1 [Example 92, (S)-N-ethyl-3-(isoquinolin-5-yloxy)-3-(thiophen-2-yl)propan-1-amine]
100 to 500 | CCNCC[C@@H](Oc1cccc2ncccc12)c1cccs1 [Example 93, (R)-N-ethyl-3-(quinolin-5-yloxy)-3-(thiophen-2-yl)propan-1-amine]
≥ 3000 | CNCC[C@H](Oc1cnc2ccccc2c1)c1cccs1 [Example 95, (S)-N-methyl-3-(quinolin-3-yloxy)-3-(thiophen-2-yl)propan-1-amine]
